Assay results published in publication PMC8139947, “Novel late-stage radiosynthesis of 5-[18F]-trifluoromethyl-1,2,4-oxadiazole (TFMO) containing molecules for PET imaging” (Scientific Reports, 2021).

Tests used:
[1] = Partition coefficient (LogD), octanol/PBS shake flask method; assay type: physicochemical; conditions: octanol / phosphate buffer pH 7.4, shake flask, radioactivity counted by gamma-counter; read-out: LogD (observed)
Source text: We determined the partition coefficients (LogD) using the octanol/PBS shake flask method.

[2] = Aqueous solubility / formulation for in vivo studies; assay type: physicochemical; conditions: high concentration of DMSO (~ 50%) needed to solubilise the tracer

logD [1]: > 6 | aqueous solubility [2]: poor
SMILES: CC(C)(CNC(=O)c1cccc(-c2noc(C(F)(F)[18F])n2)c1)c1coc(-c2ccccc2)n1 [[^18F]TMP195, N-(2-methyl-2-(2-phenyloxazol-4-yl)propyl)-3-(5-([18F]trifluoromethyl)-1,2,4-oxadiazol-3-yl)benzamide]
